Patent US6054455A, “Method for treating or preventing chronic nonbacterial prostatitis and prostatodynia” (Merck & Co., Inc., priority 1999, dated 2000)

Tested on: patients suffering from chronic nonbacterial prostatitis
Assay: Double-blind, placebo-controlled study of a substance P antagonist in patients suffering from chronic nonbacterial prostatitis
Assay type: in vivo, human
Settings: 30 mg/day; assessed by immunological profile, rating scales, checklists and diminishment of the attendant disease state
Description: Double-Blind, Placebo-Controlled Study to Determine the Effect of a Substance P Antagonist on Patients Suffering from Chronic Nonbacterial Prostatitis Approximately twenty patients diagnosed as suffering from chronic nonbacterial prostatitis receive either the substance P receptor antagonist 2-(R)-(1-(R)-(3,5-bis(trifluoromethyl)-phenyl)-ethoxy)-3-(S)-(4-fluoro-phenyl)-4-(3-(5-oxo-1H,4H-1,2,4-triazolo)methyl-morpholine (30 mg/day) or a placebo. Each subject participates in 6 randomized test periods; in 3 of the test periods, each is given the substance P antagonist and in the other 3 test periods, is given a placebo. Efficacy of the test compound is assessed by reference to immunological profile, rating scales, checklists and diminishment of the attendant disease state.

C[C@@H](O[C@H]1OCCN(Cc2n[nH]c(=O)[nH]2)[C@H]1c1ccc(F)cc1)c1cc(C(F)(F)F)cc(C(F)(F)F)c1 [2-(R)-(1-(R)-(3,5-bis(trifluoromethyl)-phenyl)-ethoxy)-3-(S)-(4-fluoro-phenyl)-4-(3-(5-oxo-1H,4H-1,2,4-triazolo)methyl-morpholine]
effect with respect to placebo in the treatment or prevention of chronic nonbacterial prostatitis: positive effect with respect to placebo
